The values below come from US20260200990A1, “MODIFIED LONG PEPTIDES SUITABLE FOR USE IN IMMUNISATION” (ISABELLA PHARMA B.V., priority 2022, published 2026).

The test system of the assay is T cells cultured from PBMC from healthy donors. Kind of assay: T cell induction by PRAME-based SLPs, IFNy ELISpot (test 1 and test 2). More on the design: species or system human; key to ELISPOT IFNy / ELISPOT IFNy, summary of the results in the table: − (negative); + (positive); When at least one donor had a positive response, this is denoted as POS. The conditions noted are these: for ELISPOT IFNy, summary of the results in the table: Table 5, all donors. On the procedure:
The capacity of human-PRAME-based SLPs to activate T cells was studied. The biological activity of the synthesized and purified SLPs was tested using PBMC from healthy donors. Monocytes were isolated using anti-CD14 beads by magnet activated cell sorting (MACS) following the protocol of the supplier (Miltenyi Biotec). In short, PBMCs were isolated by centrifugation over a Ficoll gradient and cryopreserved. To generate dendritic cells (DCs), approximately […] thawed PBMC were used for the isolation of CD14 positive cells. The cells were cultured for three days at 37° C. in 2 ml/well of IMDM 4% human serum (HS) containing 800 U/ml GM-CSF and 500 U/ml IL-4 (Peprotech). After 3 days 1 mL/well of IMDM 4% HS with GM-CSF (2400 U/mL) and IL-4 (1500 U/mL) was added to the monocytes-derived DCs and these adhered cells were cultured for an additional 3 days. On day 6, long peptides distributed over 2 pools were added to monocyte-derived DCs of naive donors at a 13 μM concentration and incubated overnight at 37° C. The next day (day 7) peptide-loaded DCs were harvested, irradiated (1000 rad), washed and mixed in a 1:10 ratio with autologous PBMC in IMDM 8% human serum in the presence of IL-7 (10 ng/ml) and IL-12p70 (100 μg/mL).
On day 10 new DCs were generated and loaded, after 6 days, with SLPs on day 16 as described above. The next day, these peptide-loaded DCs were harvested, irradiated (1000 rad) and washed. Also the cultured T cells were harvested. Both were counted and mixed in a 1:10 ratio (DC:T) in IMDM 8% human serum in the presence of IL-7 (10 ng/ml) and IL-12p70 (100 μg/mL) for the first restimulation. On the same day, new DCs were generated as described above that were loaded with SLPs on day 23 as described above. The next day, peptide-loaded DCs were harvested, irradiated (1000 rad) and washed. Also the cultured and restimulated T cells were harvested. Both were counted and mixed in a 1:10 ratio (DC:T) in IMDM 8% human serum in the presence of IL-7 (10 ng/ml) and IL-12p70 (100 μg/mL) for the second restimulation.
On this day 24, also test 1 was started in which DCs loaded with individual SLPs were cultured with harvested T cells from restimulation 1. For test 1, DCs and harvested T cells were cultured in a 1:10 ratio for 2 days after which cells were transferred to a coated ELISpot plate (see description below). On day 24, new DCs were generated as described above that were loaded with SLPs on day 30 as described above. The next day, peptide-loaded DCs were harvested, irradiated (1000 rad) and washed. Also the cultured twice restimulated T cells were harvested. Both were counted and mixed in a 1:10 ratio (DC:T) in IMDM 8% human serum in the presence of IL-2 (30 IU/mL) and IL-12p70 (100 μg/mL) for the third restimulation.
On day 31, also test 2 was started in which DCs loaded with individual SLPs were cultured with harvested T cells from restimulation 2. For test 2, DCs and harvested T cells were cultured in a 1:10 ratio for 2 days after which cells were transferred to a coated ELISpot plate (see description below).
The T cell cultures were restimulated three times in 1-week cycles using peptide loaded autologous moDCs. After the 2nd and 3rd restimulation, reactivity towards single SLPs was tested (test 1 and test 2, respectively). Reactivity was determined by measuring IFNy production using ELISpot.
For ELISpot analysis, multiscreen plates were coated with an IFNy coating antibody overnight at 4° C. The next day, the plate was washed 4× with PBS and blocking was done using IMDM 8% HS at 37° C. for at least one hour. Each sample was tested in triplicate. As a positive control, phytoheamagglutinin (PHA, 1 μg/mL) was added to cells that were not stimulated with SLP after thawing. The plate was cultured overnight at 37° C. Thereafter, cells were discarded and the plate was washed using PBS/0.05% Tween-20. The IFNy detection antibody was diluted and added to each well and incubated for 2 hours at room temperature. […]

Where [1] appears, read: donor BC298, Test 1, 2 peptide pools.
[2] abbreviates: donor BC298, Test 2, 2 peptide pools.
The mark [3] stands for this setting: donor BC305, Test 1, 2 peptide pools.
Where [4] appears, read: donor BC305, Test 2, 2 peptide pools.
Setting [5] is: donor BC306, Test 1, 2 peptide pools.
[6] abbreviates: donor BC306, Test 2, 2 peptide pools.
Where [7] appears, read: donor BC312, Test 1, 2 peptide pools.
Where [8] appears, read: donor BC312, Test 2, 2 peptide pools.
Where [9] appears, read: donor BC321, Test 1, 2 peptide pools.
Setting [10] is: donor BC321, Test 2, 2 peptide pools.
Setting [11] is: donor BC290, Test 1, 2 peptide pools.
[12] abbreviates: donor BC290, Test 2, 2 peptide pools.
[13] abbreviates: donor BC315, Test 1, 2 peptide pools.
Where [14] appears, read: donor BC315, Test 2, 2 peptide pools.

Ends that are not written are not given here.

In the case of “ALYVDSLFFLRGRLDQLLRHVMNPLETLSITNCRL (ALYVDSLFFLRGRLDQLLRHVMNPLETLSITNC(cysteinyl)RL; listed as Homo sapiens) [SEQ ID NO: 40, PRAME-based SLP, cysteinylated form tested]”, the “ELISPOT IFNy, summary of the results in the table” value (from here on “ELISPOT IFNy, summary”) was “POS”. Further, the “ELISPOT IFNy” value under setting [1] is reported as “−”. In addition, the “ELISPOT IFNy” value under setting [2] was “−”. Moreover, the “ELISPOT IFNy” value under setting [3] was “−”. For the same sequence, under setting [4], the “ELISPOT IFNy” value is “−”. The “ELISPOT IFNy” value under setting [5] is recorded as “−”. Under setting [6], the “ELISPOT IFNy” value is on record as “−”. Moreover, the “ELISPOT IFNy” value under setting [7] is recorded as “−”. Moreover, the “ELISPOT IFNy” value under setting [8] is “−”. The “ELISPOT IFNy” value under setting [9] is on record as “+”. Further, the “ELISPOT IFNy” value under setting [10] is reported as “+”.
With “VWTSPRRLVELAGQSLLKDEALAIAALELLPRELF (listed as Homo sapiens) [SEQ ID NO: 42, PRAME-based SLP]”, the “ELISPOT IFNy” value under setting [11] was “−”; the “ELISPOT IFNy” value under setting [12] was “−”; the “ELISPOT IFNy” value under setting [1] is given as “+”; the “ELISPOT IFNy” value under setting [2] is listed as “+”; the “ELISPOT IFNy” value under setting [3] is “−”; the “ELISPOT IFNy” value under setting [4] was “−”. Besides, the “ELISPOT IFNy” value by setting is: under setting [5], “−”; under setting [6], “−”; under setting [7], “−”; under setting [8], “−”; under setting [13], “−”; under setting [14], “−”. Further, the “ELISPOT IFNy” value is given as “+” under setting [9] and “−” under setting [10].
In the case of “KEGACDELFSYLIEKVKRKKNVLRL (KEGAC(cysteinyl)DELFSYLIEKVKRKKNVLRL; listed as Homo sapiens) [SEQ ID NO: 39, PRAME-based SLP, cysteinylated form tested]”, the “ELISPOT IFNy” value reads like this: (donor BC228, Test 1, pool of 3 peptides) “−”; (donor BC228, Test 2, pool of 3 peptides) “−”; under setting [1], “−”; under setting [2], “−”; (donor BC303, Test 1, pool of 3 peptides) “−”; (donor BC303, Test 2, pool of 3 peptides) “−”. The “ELISPOT IFNy” value is “−” under setting [3]; “−” under setting [4]; “−” under setting [5]; “−” under setting [6]; “−” under setting [7]; “−” under setting [8]. The “ELISPOT IFNy” value reads like this: (donor BC314, Test 1, pool of 3 peptides) “+”; (donor BC314, Test 2, pool of 3 peptides) “+”; (donor BC320, Test 1, pool of 3 peptides) “−”; (donor BC320, Test 2, pool of 3 peptides) “−”; under setting [9], “−”; under setting [10], “−”. In addition, the “ELISPOT IFNy” value runs as follows: (donor BC322, Test 1, pool of 3 peptides) “−”; (donor BC322, Test 2, pool of 3 peptides) “−”; (donor BC323, Test 1, pool of 3 peptides) “−”; (donor BC323, Test 2, pool of 3 peptides) “−”. For the same sequence, under “summary over the donors tested”, the “IFNy response in in vitro human T cell cultures” value was “positive IFNy response”.
“LPSLSHCSQLTTLSFYGNSISISALQSLLQHLIGL (LPSLSHC(cysteinyl)SQLTTLSFYGNSISISALQSLLQHLIGL; listed as Homo sapiens) [SEQ ID NO: 44, PRAME-based SLP, cysteinylated form tested]”: the “ELISPOT IFNy” value by setting is: under setting [1], “−”; under setting [2], “+”; under setting [3], “−”; under setting [4], “−”; under setting [5], “−”; under setting [6], “−”. Moreover, the “ELISPOT IFNy” value under setting [7] is listed as “−”, the “ELISPOT IFNy” value under setting [8] was “−”, the “ELISPOT IFNy” value under setting [9] is reported as “+” and the “ELISPOT IFNy” value under setting [10] is “−”.
On to “LKAMVQAWPFTCLPLGVLMKGQHLHLETFKAVL (LKAMVQAWPFTC(cysteinyl)LPLGVLMKGQHLHLETFKAVL; listed as Homo sapiens) [SEQ ID NO: 38, PRAME-based SLP, cysteinylated form tested]”, for which the “ELISPOT IFNy, summary” value is given as “POS”. The “ELISPOT IFNy” value under setting [11] is given as “−”. Under setting [12], the “ELISPOT IFNy” value was “−”. Also, the “ELISPOT IFNy” value under setting [1] was “+”. Further, the “ELISPOT IFNy” value under setting [2] is listed as “+”. For the same sequence, the “ELISPOT IFNy” value under setting [3] was “−”. Besides, the “ELISPOT IFNy” value under setting [4] is “−”. Besides, the “ELISPOT IFNy” value under setting [5] is “−”. Besides, the “ELISPOT IFNy” value under setting [6] is reported as “−”. In addition, the “ELISPOT IFNy” value under setting [7] is recorded as “−”. The “ELISPOT IFNy” value under setting [8] is “−”. Further, the “ELISPOT IFNy” value under setting [13] is given as “−”. The “ELISPOT IFNy” value under setting [14] is on record as “−”. Further, the “ELISPOT IFNy” value under setting [9] is reported as “+”. The “ELISPOT IFNy” value under setting [10] is “−”.
In the case of “PTLAKFSPYLGQMINLRRLLLSHIHASSYISPE (listed as Homo sapiens) [SEQ ID NO: 37, PRAME-based SLP]”, the “ELISPOT IFNy” value reads like this: under setting [11], “+”; under setting [12], “+”; under setting [1], “−”; under setting [2], “−”; under setting [3], “+”; under setting [4], “−”. In addition, the “ELISPOT IFNy” value is recorded as “−” under setting [5]; “−” under setting [6]; “−” under setting [7]; “−” under setting [8]; “−” under setting [13]; “−” under setting [14]. The “ELISPOT IFNy” value under setting [9] is given as “−” and the “ELISPOT IFNy” value under setting [10] is “−”.
Turning to “VLYPVPLESYEDIHGTLHLERLAYLHARLREL (listed as Homo sapiens) [SEQ ID NO: 41, PRAME-based SLP]”, the “ELISPOT IFNy, summary” value was “POS”. In addition, the “ELISPOT IFNy” value under setting [11] was “−”. Under setting [12], the “ELISPOT IFNy” value is given as “−”. Under setting [1], the “ELISPOT IFNy” value is “−”. Also, the “ELISPOT IFNy” value under setting [2] is “−”. Moreover, the “ELISPOT IFNy” value under setting [3] is on record as “−”. For the same sequence, under setting [4], the “ELISPOT IFNy” value is “−”. The “ELISPOT IFNy” value under setting [5] is “−”. Further, the “ELISPOT IFNy” value under setting [6] is “−”. In addition, the “ELISPOT IFNy” value under setting [7] is “−”. Besides, the “ELISPOT IFNy” value under setting [8] is on record as “−”. For the same sequence, the “ELISPOT IFNy” value under setting [13] is given as “+”. Moreover, the “ELISPOT IFNy” value under setting [14] is “+”. The “ELISPOT IFNy” value under setting [9] is “−”. Moreover, the “ELISPOT IFNy” value under setting [10] is listed as “−”.
As for “LLPRELFPPLFMAAFDGRHSQTLKAMVQAWPF (listed as Homo sapiens) [SEQ ID NO: 43, PRAME-based SLP]”, the “ELISPOT IFNy” value under setting [1] is “−”; the “ELISPOT IFNy” value under setting [2] is listed as “−”; the “ELISPOT IFNy” value under setting [3] is on record as “−”; the “ELISPOT IFNy” value under setting [4] was “−”; the “ELISPOT IFNy” value under setting [5] is “−”; the “ELISPOT IFNy” value under setting [6] is “−”. The “ELISPOT IFNy” value runs as follows: under setting [7], “−”; under setting [8], “−”; under setting [9], “+”; under setting [10], “−”.
